Reference: patent publication US12065468B2, “Heme-binding small peptide” (priority 2021, dated 2024)
“Also recorded” adds a separate entry of the source.

Legend:
[1] = tested on: Haemophilus influenzae; assay: Cell viability assay for H. influenzae; type: cell-based; settings: 24 hours, BHI with 7.5 μM hemin
Experimental: (§1) Cell viability assays for H. influenza and P. gingivalis: Haemophilus influenzae Rd [KW20] was obtained from ATCC (51907). Standard growth and culturing techniques were followed as described previously^92. Cultures were grown in Brain Heart Infusion broth (BHI) supplemented with 7.5 μM of hemin and 2 μg/ml NAD with or without the addition of peptide for 24 hours. The number of viable cells for every reaction mixture was then determined by serially diluting and spotting 10-μl aliquots in triplicates on BHI agar plates supplemented with 15 μM hemin and 3 μM NAD. Porphyromonas gingivalis 2561 was obtained from ATCC (33277). Pre-reduced, anaerobically sterilized Brucella Broth and BRU—Brucella Blood Agar—were purchased from Anaerobe systems (CA, USA). They were opened just before use. Static cultures and plates were incubated at 37° C. in an incubation chamber from BD GasPak™ EZ Container Systems. Anaerobic conditions were maintained by using BD BBL CO2 gas generators and BD BB GasPak™ CO2 indicators. Cultures were grown anaerobically in Brucella Broth with or without addition of peptides for 48 hours and viable cells for every reaction mixture were then determined by serially diluting and spotting 10-μ1 aliquots in triplicates on Brucella Blood Agar.

[2] = tested on: ribosomal machinery; assay: In-vitro translation assay, GFP production; type: biochemical; settings: increasing concentrations; fluorescence and western blot; listed as L-NCR247
Description: FIG. 19. Interaction of NCR247 with ribosomal machinery leads to modification in translational capability. (A) In-vitro translation assay to measure GFP production with increasing concentrations of L or D-NCR247. […] (B) Western blot to measure the amount of GFP produced using Anti-GFP antibody.
Interaction of NCR247 with ribosomal machinery leads to modification in translational capability. To see if this is due to chiral interaction, we performed in-vitro translation assay and used GFP production and measured fluorescence as a read out. We also performed a western blot to measure the amount of GFP produced using Anti-GFP antibody.

[3] = Peroxidase assay of heme on TMB; type: biochemical; settings: 5 μM NCR247 + 5 μM heme
Experimental: Peroxidase assay: Pierce TMB Substrate Kit was used to measure the peroxidase activity of the heme and equimolar NCR247 was added to heme according to the manufacturer's instructions. In short, 100 μL of TMB substrate solution (1:1 of TMB substrate and Peroxide solution) was added to 96 well black, polystyrene flat bottomed, non-treated, sterile plates. 5 μM heme or 5 μM NCR247+5 μM heme was added to the wells and the progression of the reaction was measured in a Tecan Spark™ plate reader. UV-Vis absorption values at 370 nm and 652 nm are noted every minute over a time period of 16 mins.

[4] = tested on: Porphyromonas gingivalis; assay: Cell viability assay for P. gingivalis; type: cell-based; settings: 48 hours, anaerobic, Brucella Broth
Experimental: as §1

[5] = tested on: HEK-293; assay: Cytotoxic activity assay (MTT); type: cell-based, Human; settings: 100 μM, 24 h, listed as L-NCR247
Experimental: Cytotoxic activity assay: Human embryonic kidney (HEK-293-ATCC-CRL-1573) cell lines were cultured in Dulbecco's Modified Eagle Medium (DMEM) supplemented with 10% Fetal Bovine Serum (FBS). When cells reached 10^4-10^5 cells per well, cells were supplemented with fresh DMEM without FBS, and then treated with 100 μM of NCR247 (L and D). After treatment for 24 h, MTT (Abeam, United Kingdom) stock solution was added to each well at a final concentration of 500 μg/mL and incubated in the dark for 4 h at 37° C. The absorbance at 570 nm was measured in the Tecan plate reader.

[6] = tested on: Cytochrome c; assay: UV-Vis test of heme sequestration from Cytochrome c; type: binding; settings: excess NCR247
Experimental: FIG. 13. […] The absorption spectrum of Cytochrome c remains unaltered even after addition of excess NCR247.
UV-VIS spectroscopy: All absorption spectra were collected in a Tecan Spark™ 10 M microplate reader using black polystyrene 96-well plates. Absorbance from 300 nm to 700 nm was recorded with a 5 nm interval after an initial shaking at 100 rpm for 15 secs. Heme binding to synthesized peptide: Water (pH 7.4) was used in all reactions and was first added to the wells. Peptides solubilized in water were added and then heme solubilized in 0.1 M NaOH was added, mixed thoroughly and measurements were taken immediately. Peptide and heme volume were kept to a maximum of 5 ul in volume. For all the absorption curves (except Extended FIG. 3a) […] was used. The same was also repeated with 0.1 M Tris buffer (pH 7.4) as a base buffer instead of water.

[7] = tested on: iron uptake genes (hmuP, foxA, fhuP, rhrA, fbpA), rirA; assay: qRT-PCR of iron-related genes in S. meliloti; type: cell-based, Sinorhizobium meliloti; settings: 30 mins; for expression of iron uptake genes: 2 μM (NSR247 up to 15 uM)
Experimental: RNA isolation and qRT-PCR analysis: Cells were grown in LB until they reached an O.D.600 nm of 0.2. Then cells were spun down and suspended in minimal media with or without appropriate FeSO4 concentrations for 1 hour. NCR247 was then added and 5 ml of appropriate cultures were spun down at given time intervals. Total RNA was extracted using Trizol™ (Thermo Fisher Scientific) method. Qiagen RNeasy™ kit was used to purify the RNA. On-column DNA removal was carried out using DNase I from NEB. 500 ng of each RNA sample was used to make cDNA using the iScript™ cDNA synthesis kit (Biorad). qRT-PCRs were performed as described previously^86. The standard curve method was used for relative quantification. In short, a standard curve was generated for each gene of interest (including SMc00128) by setting up qpCR reactions to amplify increasing amounts of S. meliloti Rm 1021 genomic DNA. […] This curve was then used for extrapolating relative expression level of each gene of interest in a particular sample to obtain the starting quantities (SQ). This value is then normalized to the SQ values of SMc00128 obtained for respective sample. […] These normalized values are then expressed as an average of triplicates, with standard deviation (s.d.) represented by the error bars.

[8] = tested on: Caenorhabditis elegans; assay: C. elegans growth; settings: in vivo
Description: When grown in the lab, the widely-studied model nematode Caenorhabditis elegans normally acquires heme by ingesting bacteria and breaking them down to release heme. […] A new class of heme importer was identified in C. elegans by analyzing heme-responsive proteins and orthologs have been subsequently identified in other parasites such as the kinetoplastid parasite discussed above.

## RNGCIVDPRCPYQQCRRPLYCRRR [NCR247]
[1]
  growth / viable cell number of H. influenzae: can prevent the growth; also recorded: can block the growth
[1]; listed as L-NCR247
  growth / viable cell number of H. influenzae: Reduction of viable cell number
[2]
  production of GFP: inhibition of production of GFP; also recorded: Fluorescence units decreased
[3]
  peroxidase activity of heme: intrinsic peroxidase activity of heme is quenched
[4]
  growth / viable cell number of P. gingivalis: can prevent the growth
[4]; listed as L-NCR247
  growth / viable cell number of P. gingivalis: Reduction of viable cell number
[5]
  cytotoxicity: negligible cytotoxicity; also recorded: negligible hemolysis
[6]
  sequestration of heme from Cytochrome c: cannot sequester cytochrome heme; also recorded: inability of NCR247 to sequester heme from Cytochrome c
[7]
  expression of iron uptake genes: increase in transcript levels of iron uptake genes
[7]; listed as L-NCR247
  expression of iron uptake genes: increase in expression of hmuP
[7]; 2 μM
  expression of rirA: rirA transcription was reduced
[8]
  growth of C. elegans: can block the growth; also recorded: blocks growth of the nematode C. elegans, arresting them in the L1 stage
